How the values were obtained:
[1] = tested on: mechanical allodynia induced by spinal nerve injury; test: Spinal nerve ligation (SNL) model, i.t. administration on 14th day, mechanical allodynia; type: in vivo, mouse; conditions: for anti-mechanical allodynia effect: 100 pmol i.t. on 14th day after operation
Method: (§1) Male ddY mice (6 to 12 weeks old) were used, and the threshold to a mechanical stimulus was evaluated by the vonFrey test. Specifically, the 50% withdrawal reflex threshold (Threshold) was calculated in accordance with the method of Chaplan et al. (Chaplan et al., J. Neurosci. Meth. 53, 55-63, 1994). Each compound was dissolved in 99.7% DMSO, and then the resulting solution was diluted with an artificial cerebrospinal fluid for preparation (final concentration of DMSO was 0.2%).
Spinal nerve ligation (SNL) models in which the fourth lumbar cord spinal nerves of male ddY (6 to 12 weeks old) were ligated with silk thread were used. The i.t. administration of a solvent (VEH: 10% DMSO-containing saline), PA-8, the compound 2j or the compound 2o (FIG. 9A), or PA-9 or the compound 3d (FIG. 9B) was performed on the 14th day after the operation. The method of causing a mechanical stimulus is the same as that of Example 5, and data were acquired for 24 hours after i.t. administration over time.

[2] = biological target: T1, mouse PAC receptor-expressing CHO cell (PAC1/CHO cell) (Mus musculus, UniProt P70205); test: CREB phosphorylation by PACAP stimulus, Western blot, PAC1/CHO cell; type: cell-based; conditions: for suppression of CREB phosphorylation by PACAP (1 nM): PAC1/CHO cell, compound 10 μM to 10 nM, 30 minutes before 1 nM PACAP
T1 construct: expressed in transfected cells; host or cells: CHO cells
T1 sequence (P70205 21-496): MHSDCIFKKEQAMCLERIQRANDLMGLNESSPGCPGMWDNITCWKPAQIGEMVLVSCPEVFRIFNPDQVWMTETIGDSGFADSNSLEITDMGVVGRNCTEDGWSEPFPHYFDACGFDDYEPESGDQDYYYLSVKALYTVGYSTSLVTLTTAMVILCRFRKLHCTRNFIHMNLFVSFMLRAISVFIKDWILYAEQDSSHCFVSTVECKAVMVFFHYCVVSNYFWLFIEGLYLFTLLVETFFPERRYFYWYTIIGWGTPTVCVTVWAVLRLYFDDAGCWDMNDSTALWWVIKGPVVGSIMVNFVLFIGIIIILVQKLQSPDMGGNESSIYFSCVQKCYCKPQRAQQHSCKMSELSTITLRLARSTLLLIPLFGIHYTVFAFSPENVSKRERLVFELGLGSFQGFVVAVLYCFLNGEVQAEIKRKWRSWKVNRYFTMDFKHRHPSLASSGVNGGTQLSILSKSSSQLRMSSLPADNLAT
Method: The effect of each compound on the phosphorylation of CREB (cAMP-responsive element-binding protein) produced by a PACAP stimulus was examined by Western blot analysis using an anti-phosphorylated CREB (pCREB) antibody with a mouse PAC receptor-expressing CHO cell (PAC1/CHO cell) and a mouse VPAC1 receptor-expressing CHO cell (VPAC1/CHO cell).
Specifically, treatment with a compound (PA-8, PA-9, compounds 2j, 20 and 3d) at 10 μM to 10 nM or a solvent therefor (VEH: 0.1% DMSO-containing phosphate buffer solution) was performed for 30 minutes, 1 nM PACAP was then added, and protein was recovered within 30 minutes after a PACAP stimulus.

[3] = tested on: mechanical allodynia induced by PACAP intrathecal administration; test: Mechanical allodynia induced by PACAP intrathecal administration (von Frey test); type: in vivo, mouse; conditions: simultaneous i.t.
Method: When single i.t. administration of PACAP (100 pmol/5 L) to mouse was performed, mechanical stimulus sensitive phenomenon (mechanical allodynia) occurred over a long period of time (for at least three months after the administration) (Non Patent Literature 1). […] The mechanical sensitive phenomenon induced by PACAP was not suppressed in an example in which a solvent (VEH: 0.2% DMSO-containing artificial cerebrospinal fluid) was used instead of the compounds.
as §1

PAC1 receptor = biological target: T2, PAC1 receptor (Homo sapiens, UniProt P41586); conditions: Non Patent Literature 3; cited from earlier work
T2 sequence (P41586 21-468): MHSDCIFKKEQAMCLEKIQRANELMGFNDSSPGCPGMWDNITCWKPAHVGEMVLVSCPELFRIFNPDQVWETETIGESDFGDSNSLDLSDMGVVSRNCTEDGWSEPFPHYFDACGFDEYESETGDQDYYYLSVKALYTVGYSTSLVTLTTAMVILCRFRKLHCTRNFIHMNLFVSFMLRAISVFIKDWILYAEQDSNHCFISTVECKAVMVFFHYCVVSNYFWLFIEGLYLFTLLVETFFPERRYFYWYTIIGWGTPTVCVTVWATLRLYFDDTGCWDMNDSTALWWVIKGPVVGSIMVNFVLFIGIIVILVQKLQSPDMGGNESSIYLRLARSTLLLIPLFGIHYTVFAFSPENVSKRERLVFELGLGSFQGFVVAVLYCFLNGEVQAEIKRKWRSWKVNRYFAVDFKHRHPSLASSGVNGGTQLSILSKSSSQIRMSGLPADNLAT

[4] = Non Patent Literature 4; cited from earlier work
[5] = tested on: spontaneous pain-like behavior induced by PACAP intrathecal administration; test: Spontaneous pain-like behavior induced by PACAP intrathecal administration; type: in vivo, mouse; conditions: for suppression of PACAP-induced spontaneous pain-like behavior: simultaneous i.t. with PACAP (100 pmol), counted for 30 minutes
Method: When PACAP (100 pmol/5 L) is intrathecally administered to a mouse in a single dose (single i.t. injection), spontaneous pain-like behavior in which the mouse licks or bites the rear half of the body occurs about 5 minutes after the administration (and continues for several hours) (Ohnou et al. J. Pharmacol. Sci. 130, 194-203, 2016). […] Male ddY mice (6 to 12 weeks old) were used, and the behaviors were taken on video. The number of times of spontaneous pain-like behaviors for 30 minutes after the administration was counted.

[6] = tested on: cold allodynia induced by oxaliplatin; test: Cold allodynia induced by oxaliplatin, drug on fourth day after oxaliplatin (acetone test); type: in vivo, mouse; conditions: 10 mg/kg, single oral administration; for suppression of cold allodynia by oxaliplatin: fourth day after oxaliplatin
Method: Oxaliplatin was dissolved in 5% glucose-containing saline and intraperitoneally administered at a dose of 2 mg/kg. A drug was administered on the fourth day after oxaliplatin administration. Male ddY mice (6 to 12 weeks old) were used. The axis of ordinates is the duration of the behavior of licking and paw waving after the application of an acetone drop (10 L) to the footpad of a hind paw.

[7] = tested on: pain-like behavior induced by formalin; test: Pain-like behavior induced by formalin; type: in vivo, mouse; conditions: 0.1 to 10 nmol i.t.
Method: The first phase is direct action of formalin on sensory nerves (to around 10 minutes after formalin administration). In the second phase (from around 10 minutes to 60 minutes after formalin administration), hypersensitization formed in spinal dorsal horn cells during the first phase (a type of plastic phenomenon in the nervous system also called central sensitization) is a main cause, and inflammatory reaction at the site of formalin administration contributes importantly.

[8] = tested on: mechanical allodynia induced by spinal nerve injury; test: Spinal nerve ligation (SNL) model, repeated intraperitoneal administration, mechanical allodynia; type: in vivo, mouse; conditions: for suppression of the onset of mechanical allodynia: 30 mg/kg i.p. before ligation and once a day for 7 days
Method: as §1
Spinal nerve ligation (SNL) models in which the fourth lumbar cord spinal nerves of male ddY (6 to 12 weeks old) were ligated with silk thread were used. A solvent (VEH: 10% DMSO-containing saline). PA-8, the compound 2j or the compound 20 was intraperitoneally administered (30 mg/kg) 5 to 10 minutes before the ligation, and once a day for 7 days thereafter. The method of causing a mechanical stimulus is the same as that of Example 5, and data from the first day after the ligation (D1) are data 1 hour after the administration of VEH or the drugs.

[9] = tested on: cold allodynia induced by oxaliplatin; test: Onset of cold allodynia induced by oxaliplatin, drug given around oxaliplatin administration; type: in vivo, mouse; conditions: 10 mg/kg oral
Method: Oxaliplatin was dissolved in 5% glucose-containing saline and intraperitoneally administered at a dose of 2 mg/kg. Drug administration (oral administration) was performed 30 minutes before oxaliplatin administration (FIG. 7A); or 3 times: 30 minutes before oxaliplatin administration, 2.5 hours after the administration, and 5.5 hours after the administration (FIG. 7B). Male ddY mice (6 to 12 weeks old) were used. The axis of ordinates is the duration of the behavior of licking and paw waving after the application of an acetone drop (10 μL) to the footpad of a hind paw.

[10] = 30 minutes before oxaliplatin or 3 administrations

SMILES: O=C(NCCc1c[nH]cn1)C1CC(=O)N(c2n[nH]c3ccccc23)C1 (stereo not drawn) [PA-9, reference compound]
- mechanical threshold 24 hours after the administration ([1]; 100 pmol i.t.): maintained the mechanical threshold highly significantly
- anti-mechanical allodynia effect [1]: anti-mechanical allodynia effect equivalent to PA-8 and the compound 2j
- suppression of CREB phosphorylation by PACAP (1 nM) [2]: suppressed CREB phosphorylation by PACAP (1 nM) depending on the concentration
- suppression of long-term mechanical allodynia induced by PACAP ([3]; 100 pmol, FIG. 5C): strongly suppressed
- PAC1 receptor antagonistic action (PAC1 receptor): have PAC1 receptor antagonistic action
- analgesic effect [4]: have analgesic effect

SMILES: CCOc1cccc(C2CC(=O)Nc3nc(N)[nH]c(=O)c32)c1 (stereo not drawn) [compound 2j, 2-Amino-5-(3-ethoxyphenyl)-5,8-dihydro-3H,6H-pyrido[2,3-d]pyrimidine-4,7-dione]
- effect on PACAP response compared with PA-8 ([5]; 10 pmol i.t., versus PA-8 10 pmol): significantly stronger than that of PA-8 (10 pmol)
- suppression of PACAP-induced spontaneous pain-like behavior ([5]; 10 pmol): suppressed the PACAP response significantly
- suppression of PACAP-induced spontaneous pain-like behavior ([5]; 100 pmol): suppressed the PACAP response significantly
- anti-mechanical allodynia effect [1]: suppressed the onset of mechanical allodynia significantly
- maximum effect compared with compound 2o ([1]; 100 pmol i.t., 3 hours after the administration): significantly inferior as compared with the compound 2o
- suppression of CREB phosphorylation by PACAP (1 nM) [2]: suppressed depending on the concentration
- suppression of cold allodynia by oxaliplatin [6]: suppressed cold allodynia by oxaliplatin significantly over 4 to 5 hours
- suppression of long-term mechanical allodynia induced by PACAP ([3]; 10 or 100 pmol, FIGS. 5A and B): strongly suppressed
- effect on first phase reaction [7]: did not affect the first phase reaction
- effect on second phase reaction [7]: did not affect the second phase reaction
- suppression of the onset of mechanical allodynia [8]: did not suppress the onset of mechanical allodynia
- suppression of the onset of cold allodynia by oxaliplatin [9, 10]: suppressed the onset of cold allodynia by oxaliplatin significantly

SMILES: Nc1nc2c(c(=O)[nH]1)C(c1cccc(OC(F)(F)F)c1)CC(=O)N2 (stereo not drawn) [compound 2o, 2-Amino-5-(3-trifluoromethoxyphenyl)-5,8-dihydro-3H,6H-pyrido[2,3-d]pyrimidine-4,7-dione]
- suppression of PACAP-induced spontaneous pain-like behavior ([5]; 10 pmol): did not exhibit a significant suppressing effect
- suppression of PACAP-induced spontaneous pain-like behavior ([5]; 100 pmol): suppressing effect equivalent to PA-8 and the compound 2j
- anti-mechanical allodynia effect [1]: suppressed the onset of mechanical allodynia significantly
- suppression of CREB phosphorylation by PACAP (1 nM) [2]: suppressed CREB phosphorylation by PACAP (1 nM)
- effect of suppressing CREB phosphorylation compared with basic compound ([2]; at 1 nM, 2o versus PA-8, 3d versus PA-9, FIG. 3): significantly stronger effect of suppressing CREB phosphorylation
- time of onset of effect on cold allodynia [6]: effective from an earlier period of time (the first hour after administration)
- suppression of cold allodynia by oxaliplatin [6]: suppressed cold allodynia by oxaliplatin significantly over 4 to 5 hours
- suppression of long-term mechanical allodynia induced by PACAP ([3]; 10 or 100 pmol, FIGS. 5A and B): strongly suppressed
- effect on first phase reaction [7]: did not affect the first phase reaction
- effect on second phase reaction [7]: suppressed the second phase reaction significantly depending on the concentration
- suppression of the onset of mechanical allodynia [8]: suppressed the onset of mechanical allodynia still more strongly
- mechanical threshold level during administration ([8]; 30 mg/kg i.p. once a day): maintained the mechanical threshold at a level equivalent to an uninjured side
- mechanical threshold after discontinuation of administration ([8]; 30 mg/kg i.p., discontinued on the seventh day, versus VEH group): maintained the mechanical threshold highly significantly for at least 7 days thereafter
- suppression of the onset of cold allodynia by oxaliplatin [9, 10]: suppressed the onset of cold allodynia by oxaliplatin significantly
- suppression of the onset of cold allodynia by oxaliplatin ([9]; three administrations (FIG. 7B)): suppressed the onset almost completely

Reference: patent US11365194B2, “Analgesic drug using PAC1 receptor antagonistic drug” (KAGOSHIMA UNIVERSITY, priority 2017, dated 2022)
